Measurements taken from ChEMBL document CHEMBL4145540 (Eur J Med Chem, 2018).
Active and inactive are the calls of the source. The calls are words filed in the database; no cut-off is given here.

What was measured:
A549 [1] = experiment: Cell cycle arrest in human A549 cells assessed as accumulation at S phase at 750 nM after 20 hrs by propidium iodide staining based flow cytometry (reference value: 16 +/- 1%); type: functional
A549 [2] = experiment: Cell cycle arrest in human A549 cells assessed as accumulation at G2/M phase at 750 nM after 20 hrs by propidium iodide staining based flow cytometry (reference value: 11 +/- 1%); type: functional
HT-29 = experiment: Antiproliferative activity against human HT-29 cells after 2 days by MTT assay; type: functional, cell-based; details: HT-29, 48 h
MCF7 = experiment: Antiproliferative activity against human MCF7 cells after 2 days by MTT assay; type: functional, cell-based; details: MCF7, 48 h
HeLa = experiment: Antiproliferative activity against human HeLa cells after 2 days by MTT assay; type: functional, cell-based; details: 48 h
HL-60 = experiment: Antiproliferative activity against human HL60 cells after 2 days by MTT assay; type: functional, cell-based; details: HL-60, 48 h
HMEC-1 [3] = experiment: Antiproliferative activity against HMEC1 cells after 2 days by MTT assay; type: functional, cell-based; details: Homo sapiens, HMEC-1, 48 h
A549 [4] = experiment: Cell cycle arrest in human A549 cells assessed as accumulation at sub-G0 phase at 750 nM after 20 hrs by propidium iodide staining based flow cytometry (reference value: 6.6 +/- 0.1%); type: functional
HEK293 = experiment: Antiproliferative activity against HEK293 cells after 2 days by MTT assay; type: cell-based; details: Homo sapiens, HEK293, 48 h
A549 [5] = experiment: Antiproliferative activity against human A549 cells after 2 days by MTT assay; type: functional, cell-based; details: A549, 48 h
MDA-MB-231 [6] = experiment: Antiproliferative activity against human MDA-MB-231 cells after 3 days by coulter counting method; type: functional, cell-based; details: MDA-MB-231, 72 h
A549 [7] = experiment: Induction of apoptosis in human A549 cells at 10 nM after 24 hrs by Annexin V-FITC/propidium iodide staining based flow cytometry (reference value: 28%); type: functional
[8] = Selectivity index, ratio of IC50 for antiproliferative activity against HEK293 cells to IC50 for antiproliferative activity against human MCF7 cells; type: toxicity, cell-based; details: HEK293 cells versus MCF7 cells, read-out: Ratio IC50
[9] = Selectivity index, ratio of IC50 for antiproliferative activity against HEK293 cells to IC50 for antiproliferative activity against human HL60 cells; type: toxicity, cell-based; details: HEK293 cells versus HL60 cells, read-out: Ratio IC50
[10] = Selectivity index, ratio of IC50 for antiproliferative activity against HEK293 cells to IC50 for antiproliferative activity against human HT-29 cells; type: toxicity, cell-based; details: HEK293 cells versus HT-29 cells, read-out: Ratio IC50
A549 [11] = experiment: Cell cycle arrest in human A549 cells assessed as accumulation at sub-G0 phase at 80 nM after 20 hrs by propidium iodide staining based flow cytometry (reference value: 6.6 +/- 0.1%); type: functional
A549 [12] = experiment: Induction of apoptosis in human A549 cells after 24 hrs by Annexin V-FITC/propidium iodide staining based flow cytometry; type: functional, cell-based
A549 [13] = experiment: Cell cycle arrest in human A549 cells assessed as accumulation at G2/M phase at 80 nM after 20 hrs by propidium iodide staining based flow cytometry (reference value: 11 +/- 1%); type: functional
A549 [14] = experiment: Cell cycle arrest in human A549 cells assessed as accumulation at G0/G1 phase at 80 nM after 20 hrs by propidium iodide staining based flow cytometry (reference value: 66 +/- 1%); type: functional
A549 [15] = experiment: Induction of apoptosis in human A549 cells at 100 nM after 24 hrs by Annexin V-FITC/propidium iodide staining based flow cytometry (reference value: 28%); type: functional
[16] = Selectivity index, ratio of IC50 for antiproliferative activity against HEK293 cells to IC50 for antiproliferative activity against human HeLa cells; type: toxicity, cell-based; details: HEK293 cells versus HeLa cells, read-out: Ratio IC50
A549 [17] = experiment: Cell cycle arrest in human A549 cells assessed as accumulation at S phase at 80 nM after 20 hrs by propidium iodide staining based flow cytometry (reference value: 16 +/- 1%); type: functional
Bos taurus = species on record: Bos taurus; experiment: Inhibition of calf brain tubulin polymerization after 60 mins by turbidimetric method
A549 [18] = experiment: Cell cycle arrest in human A549 cells assessed as accumulation at G0/G1 phase at 200 nM after 20 hrs by propidium iodide staining based flow cytometry (reference value: 66 +/- 1%); type: functional
A549 [19] = experiment: Cell cycle arrest in human A549 cells assessed as accumulation at S phase at 200 nM after 20 hrs by propidium iodide staining based flow cytometry (reference value: 16 +/- 1%); type: functional
A549 [20] = experiment: Cell cycle arrest in human A549 cells assessed as accumulation at sub-G0 phase at 200 nM after 20 hrs by propidium iodide staining based flow cytometry (reference value: 6.6 +/- 0.1%); type: functional
A549 [21] = experiment: Cell cycle arrest in human A549 cells assessed as accumulation at G2/M phase at 200 nM after 20 hrs by propidium iodide staining based flow cytometry (reference value: 11 +/- 1%); type: functional
A549 [22] = experiment: Disruption of microtubule network in human A549 cells assessed as appearance of compressed and fragmented nuclei at 260 nM after 16 hrs by Hoechst staining based immunofluorescence assay; type: cell-based
A549 [23] = experiment: Cell cycle arrest in human A549 cells assessed as accumulation at S phase at 65 nM after 20 hrs by propidium iodide staining based flow cytometry (reference value: 16 +/- 1%); type: functional
A549 [24] = experiment: Cell cycle arrest in human A549 cells assessed as accumulation at G0/G1 phase at 65 nM after 20 hrs by propidium iodide staining based flow cytometry (reference value: 66 +/- 1%); type: functional
A549 [25] = experiment: Cell cycle arrest in human A549 cells assessed as accumulation at G2/M phase at 65 nM after 20 hrs by propidium iodide staining based flow cytometry (reference value: 11 +/- 1%); type: functional
A549 [26] = experiment: Cell cycle arrest in human A549 cells assessed as accumulation at sub-G0 phase at 65 nM after 20 hrs by propidium iodide staining based flow cytometry (reference value: 6.6 +/- 0.1%); type: functional
A549 [27] = experiment: Disruption of microtubule network in human A549 cells assessed as appearance of tubulin aggregates at 260 nM after 16 hrs by Hoechst staining based immunofluorescence assay; type: cell-based
HMEC-1 [28] = experiment: Vascular disruptive activity in HMEC1 cells assessed as disruption of preformed tubular networks after 4 hrs by matrigel based assay; type: functional, cell-based; details: Homo sapiens
MDA-MB-231 [29] = experiment: Inhibition of EBI binding to beta-tubulin colchicine binding site in human MDA-MB-231 cells at 3 uM preincubated for 16 hrs followed by EBI addition and measured after 1.5 hrs by Western blot analysis; type: cell-based
A549 [30] = experiment: Cell cycle arrest in human A549 cells assessed as accumulation at sub-G0 phase at 75 nM after 20 hrs by propidium iodide staining based flow cytometry (reference value: 6.6 +/- 0.1%); type: functional
A549 [31] = experiment: Cell cycle arrest in human A549 cells assessed as accumulation at S phase at 75 nM after 20 hrs by propidium iodide staining based flow cytometry (reference value: 16 +/- 1%); type: functional
A549 [32] = experiment: Cell cycle arrest in human A549 cells assessed as accumulation at G0/G1 phase at 75 nM after 20 hrs by propidium iodide staining based flow cytometry (reference value: 66 +/- 1%); type: functional
A549 [33] = experiment: Cell cycle arrest in human A549 cells assessed as accumulation at G2/M phase at 75 nM after 20 hrs by propidium iodide staining based flow cytometry (reference value: 11 +/- 1%); type: functional

Row | SMILES | IC50 (HT-29) | IC50 (MCF7) | IC50 (HeLa) | IC50 (HL-60) | IC50 (HMEC-1 [3]) | IC50 (HEK293) | IC50 (A549 [5]) | IC50 (MDA-MB-231 [6]) | Activity (A549 [7]) | selectivity ratio [8] | selectivity ratio [9] | selectivity ratio [10] | Activity (A549 [12]) | Activity (A549 [15]) | selectivity ratio [16] | inhibition (MDA-MB-231 [29]) | further results
1 | COc1ccc(/C=C\c2cc(OC)c(OC)c(OC)c2)cc1NC(=O)Oc1cc(C)cc(C)c1 | 260 nM | 210 nM | 130 nM | 620 nM | 180 nM | 150 nM | 1540 nM | 12 nM |  |  |  |  |  |  |  |  | Activity (A549 [1]): 16%; Activity (A549 [2]): 38%; Activity (A549 [4]): 22%
2 | COc1ccc(/C=C\c2cc(OC)c(OC)c(OC)c2)cc1NC(=O)Oc1cccc(Br)c1 | 11.3 nM | 5.9 nM | 2.6 nM | 5.6 nM | 12 nM | 16 nM | 160 nM | 13.4 nM | 51% | 2 to 11 | 2 to 11 | 2 to 11 | Dose-dependent effect | 90% | 2 to 11 |  | Activity (A549 [11]): 17%; Activity (A549 [13]): 39%; Activity (A549 [14]): 30%; Activity (A549 [17]): 12%; inhibition (Bos taurus): Active
3 | COc1ccc(/C=C\c2cc(OC)c(OC)c(OC)c2)cc1NC(=O)Oc1ccc(F)cc1 | 60 nM | 95.4 nM | 60 nM | 50 nM | 65 nM | 185 nM | 400 nM | 13.8 nM |  | 2 to 11 | 2 to 11 | 2 to 11 |  |  | 2 to 11 |  | Activity (A549 [18]): 26%; Activity (A549 [19]): 19%; Activity (A549 [20]): 21%; Activity (A549 [21]): 34%
4 | COc1ccc(/C=C\c2cc(OC)c(OC)c(OC)c2)cc1NC(=O)Oc1cccc(C(F)(F)F)c1 | 13 nM | 56 nM | 40 nM | 4 nM | 16 nM | 42.2 nM | 130 nM | 14.2 nM |  |  |  |  |  |  |  |  | Activity (A549 [22]): Active; Activity (A549 [23]): 15%; Activity (A549 [24]): 28%; Activity (A549 [25]): 41%; Activity (A549 [26]): 16%; Activity (A549 [27]): Active
5 | COc1ccc(/C=C\c2cc(OC)c(OC)c(OC)c2)cc1NC(=O)Oc1ccccc1Cl | 17.8 nM | 10.1 nM | 5 nM | 3.7 nM | 50 nM | 41 nM | 130 nM | 13.8 nM |  | 2 to 11 | 2 to 11 | 2 to 11 |  |  | 2 to 11 |  | Activity (A549 [22]): Active; Activity (A549 [23]): 12%; Activity (A549 [24]): 29%; Activity (A549 [25]): 43%; Activity (A549 [26]): 16%; Activity (A549 [27]): Active
6 | COc1cccc(OC(=O)Nc2cc(/C=C\c3cc(OC)c(OC)c(OC)c3)ccc2OC)c1 | 4.8 nM | 7.18 nM | 3.4 nM | 4.9 nM | 5 nM | 8.1 nM | 160 nM | 8 nM | 49% |  |  |  | Dose-dependent effect | 92% |  | Active | Activity (HMEC-1 [28]): Dose-dependent effect; Activity (A549 [11]): 17%; Activity (A549 [13]): 36%; Activity (A549 [14]): 31%; Activity (A549 [17]): 16%
7 | COc1ccc(/C=C\c2cc(OC)c(OC)c(OC)c2)cc1NC(=O)Oc1cccc(C)c1 | 46 nM | 25 nM | 23 nM | 67 nM | 50 nM | 40 nM | 390 nM | 13.6 nM |  |  |  |  |  |  |  |  | Activity (A549 [18]): 26%; Activity (A549 [19]): 16%; Activity (A549 [20]): 22%; Activity (A549 [21]): 36%
8 | COc1ccc(/C=C\c2cc(OC)c(OC)c(OC)c2)cc1NC(=O)Oc1ccc(Br)cc1 | 3.5 nM | 0.75 nM | 1.2 nM | 5 nM | 7 nM | 19 nM | 150 nM | 4.07 nM | 36% | 2 to 11 | 2 to 11 | 2 to 11 | Dose-dependent effect | 95% | 2 to 11 | Active | Activity (A549 [30]): 19%; Activity (A549 [31]): 17%; Activity (A549 [32]): 32%; Activity (HMEC-1 [28]): Dose-dependent effect; Activity (A549 [33]): 33%
9 | COc1cc2c(c(OC)c1OC)-c1ccc(OC)c(=O)cc1[C@@H](NC(C)=O)CC2 |  |  |  |  |  |  |  |  |  |  |  |  |  |  |  | Active | 
